These results are taken from US20230092495A1, “SOLID FORMS OF TEZACAFTOR AND PROCESSES FOR THE PREPARATION THEREOF” (QUÍMICA SINTÉTICA, S.A., priority 2020, published 2023).

A short description of data set [1]: Stressed stability of crystalline tezacaftor form B, polymorphic stability by XRPD. The note with it: 4 weeks. Format: physicochemical. The text has this: (§1) Unless otherwise indicated, in the context of the present invention a range of values indicated for a certain parameter, for example the weight of a component in a mixture, includes the upper and the lower limits of the range, e.g. if the content in weight, or in volume, of a component A in a mixture is indicated as “X to Y”, the content of A can be X, Y or any of the intermediate values. By “polymorphically stable” it is meant that the crystalline form B and the amorphous form of the present invention, when stored (I) at 70° C. under reduced pressure for at least 1 hour (preferably for 5 hours, more preferably for 10 hours, even more preferably for 12 hours), (II) at 60° C. for at least 1 day (preferably for 5 days, more preferably for 10 days, even more preferably for 15 days), (III) at 40° C. and 75% RH for at least 1 day (preferably for 5 days, more preferably for 10 days, even more preferably for 15 days), and/or (IV) at 25-30° C. and 80% RH for at least 1 day (preferably for 5 days, more preferably for 10 days, even more preferably for 15 days), show no signs of transformation into a different crystalline tezacaftor (e.g. Form A) as evaluated by the absence of peaks in an X-ray powder diffractogram (XRPD).
XRPD analyses were performed at 20-30° C. by means of a theta/theta vertical scan Bruker AXS D8 Advance high-performance diffractometer. The instrument was equipped with a Cu-Kα X-ray tube operating at 40 kV/40 mA and generating radiation having λ=1.5418 Å. The detector was a linear Lynxeye XE-T position sensitive set at 250 mm from the sample. Powder samples were deposited in the 20 mm×0.5 mm hollow of the sample holder, consisting of a quartz monocrystal zero background plate. A mild grinding of the sample in an agate mortar may be needed to obtain a suitable fine powder. Diffraction data were collected applying the following conditions: angular range 2-40° 2-theta, 0.02°/step scan and 1 second acquisition time. The instrument calibration was verified by means of a NIST SRM 1976b. […]

The nature of data set [2]: Stability of amorphous tezacaftor, polymorphic stability by XRPD. The data set is classed as physicochemical.
Text: as §1
XRPD analyses were performed at 20-30° C. by means of a theta/theta vertical scan Bruker AXS D8 Advance high-performance diffractometer. The instrument was equipped with a Cu-Kα X-ray tube operating at 40 kV/40 mA and generating radiation having λ=1.5418 Å. The detector was a linear Lynxeye XE-T position sensitive set at 250 mm from the sample. Powder samples were deposited in the 20 mm×0.5 mm hollow of the sample holder, consisting of a quartz monocrystal zero background plate. A mild grinding of the sample in an agate mortar may be needed to obtain a suitable fine powder. Diffraction data were collected applying the following conditions: angular range 2-40° 2-theta, 0.02°/step scan and 1 second acquisition time. The instrument calibration was verified by means of a NIST SRM 1976b. Data acquisition was performed by means of Bruker Diffraction Measurement Center software. Data elaboration was performed by means of Crystal Impact Match!.
The amorphous tezacaftor, prepared as described in Examples 3 to 5, was maintained at 70° C. under a reduced pressure for 12 hours.
The amorphous tezacaftor, prepared as described in Examples 3 to 5, was maintained, in a closed vial, at 60° C. for 15 days.
The amorphous tezacaftor, prepared as described in Examples 3 to 5, was maintained, in an open vial, at 40° C. and 75% RH for 15 days.
The amorphous tezacaftor, prepared as described in Examples 3 to 5, was maintained, in an open vial, at 25-30° C. and 80% RH for 15 days.

Regarding `CC(C)(CO)c1cc2cc(NC(=O)C3(c4ccc5c(c4)OC(F)(F)O5)CC3)c(F)cc2n1C[C@@H](O)CO` [crystalline tezacaftor, (R)-1-(2,2-difluorobenzo[d][1,3]dioxol-5-yl)-N-(1-(2,3-dihydroxypropyl)-6-fluoro-2-(1-hydroxy-2-methylpropan-2-yl)-1H-indol-5-yl)cyclopropane-1-carboxamide], the “XRPD analysis after storage (polymorphic stability)” value in data set [1] (20-25° C., 80% relative humidity, open vial) was “XRPD diffractogram corresponding to the one obtained in example 1”; in data set [1] (40° C. and 75% RH, open vial), “XRPD diffractogram corresponding to that obtained in example 1”; in data set [1] (60° C., closed vial) it was “XRPD diffractogram corresponded to that obtained from the sample of example 1”.

Take `CC(C)(CO)c1cc2cc(NC(=O)C3(c4ccc5c(c4)OC(F)(F)O5)CC3)c(F)cc2n1C[C@@H](O)CO` [amorphous tezacaftor, (R)-1-(2,2-difluorobenzo[d][1,3]dioxol-5-yl)-N-(1-(2,3-dihydroxypropyl)-6-fluoro-2-(1-hydroxy-2-methylpropan-2-yl)-1H-indol-5-yl)cyclopropane-1-carboxamide]: the “XRPD analysis after storage (polymorphic stability)” value in data set [2] (25-30° C. and 80% RH, open vial, 15 days) was “XRPD spectrum corresponding to the one obtained in example 3”; in data set [2] (40° C. and 75% RH, open vial, 15 days), “XRPD spectrum corresponding to the one obtained in example 3”; in data set [2] (60° C., closed vial, 15 days), “XRPD spectrum corresponding to the one obtained in example 3”; in data set [2] (70° C. under reduced pressure, 12 hours) it was “XRPD spectrum corresponding to the one obtained in example 3”.
